Results published in PMC10518255, “A first-in-class pan-lysyl oxidase inhibitor impairs stromal remodeling and enhances gemcitabine response and survival in pancreatic cancer” (Nature Cancer, 2023).
“And” between values parts separate entries of the source, which are not always exact repeats. Identical values can stand only once.

Tested on: PDGFR-β
Test: Immunohistochemistry of end-point KPC tumors: panCAF marker
Type: in vivo, mouse
Details: for Percent coverage of PDGFR-ß positive staining: Extended Data 6C, KPC tumours at endpoint, individual FOV
Experimental: All tissues or matrices, including patient TMAs, were fixed in 10% buffered formalin and embedded in paraffin. The 4-μm sections of samples were deparaffinized with xylene and rehydrated in graded ethanol washes. For immunohistochemistry, Bond Dewax Solution (AR9222) was used. Antigen retrieval was performed using Bond RX H2(30) protocol: HIER 30 min ER1 (citrate pH 6) OR ER2 (EDTA pH 9) at 100 °C. Slides were quenched in BOND Polymer Refine Detection (Leica Biosystems DS9800). […] Slides were digitized on an Aperio slide scanner and representative areas per tumor acquired and analyzed by researchers blinded to the conditions of the experiment.
Extended Data Fig. 6 PXS-5505 in combination with gemcitabine in a KPC model. a. Quantification of proliferating cells (Ki67 positive nuclear staining) in KPC tumors at end point, treated as indicated. 5 fields of view (500 μm × 500 μm) per mouse and 10 mice per cohort were scored. […] Quantification of percent coverage of αSMA positive staining in KPC tumors at end point, treated as indicated. 3 fields of view (1000 μm × 1000 μm) per mouse and 10 mice per cohort were scored. […] Quantification of percent coverage of PDGFR-ß positive staining in KPC tumors at end point, treated as indicated. 3 fields of view (1000 μm × 1000 μm) per mouse and 10 mice per cohort were scored. […] Quantification of pMLC2 positive staining in stromal regions of KPC tumors at end point, treated as indicated. 3 fields of view (500 μm × 500 μm) per mouse and 10 mice per cohort were scored. […] Quantification of tumor vasculature (CD31 positive staining) in KPC tumors at end point, treated as indicated. 3 fields of view (1000 μm × 1000 μm) per mouse and 10 mice per cohort were scored. […] Quantification of STAT3 activation (pSTAT3 positive nuclear staining) in KPC tumors at end point, treated as indicated. 3 fields of view (1000 μm × 1000 μm) per mouse and 5 mice per cohort were scored. […] Scale bars = 100 μm. g Quantification of macrophage infiltration (F4/80 positive staining) in KPC tumors at end point, treated as indicated. […]

Structure (SMILES): Nc1ccn([C@@H]2O[C@H](CO)[C@@H](O)C2(F)F)c(=O)n1 [Gem, gemcitabine]
- Percent coverage of PDGFR-ß positive staining: 7.4938% and 2.1875% and 12.1122% and 4.282% and 6.095% and 3.1691% and 15.1145% and 8.8619% and 8.0756% and 17.8714% and 24.3073% and 20.1172% and 13.2929% and 10.304% and 12.3137% and 10.967% and 18.634% and 4.9424% and 8.9111% and 7.7908% and 2.017% and 14.5457% and 8.9344% and 10.6658% and 5.631% and 1.6247% and 8.4484% and 0.5673% and 1.2057% and 0.8465%
- PDGFR-β positivity (KPC tumors at end point): small decreases in positivity

Structure (SMILES): Cl.Cl.NC/C=C(\F)CS(=O)(=O)c1cccc2cccnc12.O [PXS-5505, (Z)-3-fluoro-4-(quinolin-8-ylsulfonyl)but-2-en-1-amine dihydrochloride monohydrate]
- Percent coverage of PDGFR-ß positive staining: 6.765% and 8.3993% and 2.8629% and 12.2376% and 9.6982% and 4.3212% and 4.8524% and 9.496% and 7.1445% and 8.9357% and 7.1025% and 17.1234% and 12.5648% and 3.0699% and 20.4926% and 2.5465% and 8.2725% and 3.1151% and 4.1221% and 5.7763% and 4.8975% and 4.1951% and 11.8569% and 14.757% and 1.2435% and 4.7314% and 2.3407% and 3.9912% and 1.8413% and 6.5811%
